Laboratory results taken from PMC11785791, “Cryo-EM structure of the calcium-sensing receptor complexed with the kokumi substance γ-glutamyl-valyl-glycine” (Scientific Reports, 2025).
Substitutions are numbered along the chain they refer to. *1 amine or outer side, *2 acyl side, *3 side chain or, on linkers, in order; H or OH if unused. Where a SMILES comes first, the peptide text is derived from it. γGlu = O=C(O)[CH](CCC(=O)[*:2])N[*:1]

How the values were obtained:
[1] = molecular target: T1, human CaSR F42S mutant (Homo sapiens, UniProt P41180, F42S); experiment: Calcium mobilization assay, CaSR F42S mutant; assay type: cell-based; settings: for Response in calcium mobilization assay: in words
T1 construct: expressed in transfected cells; host or cells: PEAKrapid cells (ATCC), pcDNA 3.1, transient transfection
T1 sequence (P41180 20-1078 F42S): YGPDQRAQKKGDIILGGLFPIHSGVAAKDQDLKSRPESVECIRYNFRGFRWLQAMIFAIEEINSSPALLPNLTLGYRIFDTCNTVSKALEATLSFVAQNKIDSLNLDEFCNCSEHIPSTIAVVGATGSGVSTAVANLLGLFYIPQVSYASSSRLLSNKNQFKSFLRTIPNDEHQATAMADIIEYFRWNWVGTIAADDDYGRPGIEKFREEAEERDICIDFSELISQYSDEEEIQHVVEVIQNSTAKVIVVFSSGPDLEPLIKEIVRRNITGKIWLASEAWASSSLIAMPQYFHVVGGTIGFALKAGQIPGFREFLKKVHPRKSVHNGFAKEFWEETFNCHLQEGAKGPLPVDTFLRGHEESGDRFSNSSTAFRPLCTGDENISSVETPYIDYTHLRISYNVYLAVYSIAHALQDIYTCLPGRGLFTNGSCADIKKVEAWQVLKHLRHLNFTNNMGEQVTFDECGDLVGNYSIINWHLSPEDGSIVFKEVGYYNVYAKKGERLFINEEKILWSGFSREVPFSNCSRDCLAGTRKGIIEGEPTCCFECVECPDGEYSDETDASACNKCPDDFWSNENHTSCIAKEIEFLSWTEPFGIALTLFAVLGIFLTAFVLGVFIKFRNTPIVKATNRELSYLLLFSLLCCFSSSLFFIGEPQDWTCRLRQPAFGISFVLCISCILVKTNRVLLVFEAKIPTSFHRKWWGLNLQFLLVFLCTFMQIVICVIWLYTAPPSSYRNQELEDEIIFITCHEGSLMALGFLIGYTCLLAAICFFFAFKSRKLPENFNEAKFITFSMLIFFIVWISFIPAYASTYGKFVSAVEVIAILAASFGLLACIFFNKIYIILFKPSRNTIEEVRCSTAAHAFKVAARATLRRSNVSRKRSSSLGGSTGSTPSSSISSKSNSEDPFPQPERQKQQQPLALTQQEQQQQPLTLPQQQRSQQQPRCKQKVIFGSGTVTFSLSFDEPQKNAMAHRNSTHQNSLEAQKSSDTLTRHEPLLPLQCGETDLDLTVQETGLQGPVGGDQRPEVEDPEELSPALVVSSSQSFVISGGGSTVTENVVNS
Experimental: (§1) The CaSR receptor responsiveness was assessed by using PEAK^rapid cells (ATCC, Manassas, VA, USA) transiently transfected with the receptor DNA by the method reported by Kitajima et al.[6]. Briefly, human CaSR or its mutant cDNA with a signal sequence (MAFYSCCWVLLALTWHTSA) followed by FLAG-tag (DYKDDDDK) were inserted into pcDNA 3.1 expression vectors in Opti-MEM I medium (Thermo Fisher Scientific), mixed with FuGENE 6 (Roche), and poured onto PEAK^rapid cells grown at a submaximal concentration. After culturing for 24 h in 96-well plates, the cells were incubated with 5 µM Calcium-5 solution (Calcium-5 assay kit, Molecular Devices) for 45–60 min, and measurements were performed using a plate reader (FDSS/µCELL, Hamamatsu Photonics, Shizuoka, Japan) and its associated software. The activation of CaSR expressed in cells increases the intracellular Ca^2+ concentration, which is measured using a Ca^2+-sensitive dye. The binding of Ca^2+ to the Ca^2+-sensitive dye increases dye fluorescence, with excitation at 485 nm and emission at 525 nm. Test compounds were dissolved and administered in the assay buffer (146 mM NaCl, 1 mM MgSO4, 20 mM HEPES, 1 mM CaCl2, 2.5 mM probenecid, and 1.39 mM glucose, pH 7.4). Transiently transfected cells were challenged with compounds and compared with the vehicle alone and/or mock-transfected cells. The concentration dependence of the fluorescence intensity (influx of Ca^2+) was analyzed using the plate reader at 1 s intervals for 180 s. For the dose–response curve calculations, peak fluorescence responses after the addition of compounds were corrected for, normalized to the background fluorescence (ΔF/F = –F − F0)/F0), and baseline noise was subtracted. Dose–response curves were calculated by non-linear regression using GraphPad PRISM 8.0.

[2] = molecular target: T2, human CaSR R66E mutant (Homo sapiens, UniProt P41180, R66E); experiment: Calcium mobilization assay, CaSR R66E mutant; assay type: cell-based; settings: for Response in calcium mobilization assay: in words
T2 construct: (N); expressed in transfected cells; host or cells: PEAKrapid cells (ATCC), pcDNA 3.1, transient transfection
T2 sequence (P41180 20-1078 R66E): T1 sequence (P41180 20-1078 F42S) with S23F, R47E
Experimental: as §1

| SMILES | Emax (% of wild-type values) [1] | EC50 ([1]; mean ± s.e.m., n = 3) | Emax (% of wild-type values) [2] | EC50 ([2]; mean ± s.e.m., n = 3) | Response in calcium mobilization assay [1] | Response in calcium mobilization assay [2] |
| --- | --- | --- | --- | --- | --- | --- |
| [Ca+2].[Cl-].[Cl-] [CaCl2] | 87.0 % of WT | 6.6 ± 0.3 mM | 105.0 % of WT | 3.47 ± 0.4 mM |  |  |
| N[C@@H](Cc1ccc(O)cc1)C(=O)O [L-Tyr, L-tyrosine] |  |  |  |  | no response | no response |
| CC(C)[C@H](NC(=O)CC[C@H](N)C(=O)O)C(=O)O [γ-EV, γ-glutamyl-valine] |  |  |  |  | no response | no response |
| CC(C)C(NC(=O)CCC(N)C(=O)O)C(=O)NCC(=O)O (stereo not drawn) [γ-EVG, γ-glutamyl-valyl-glycine] (γGlu-Val-Gly-OH; configuration not given here) |  |  |  |  |  | completely abolished the activity |
